What was measured:
4T1 cells = experiment: CD73hi adenosine-rich 4T1 syngeneic tumor model, tumor growth; format: in vivo; settings: 4T1, female BALB/c mice; Day 13 post treatment initiation; Compound A 300 mg/kg po bid; bintrafusp alfa 24.6 mg/kg iv days 0, 3, 6
Description: Female BALB/c mice were inoculated with 5×10^4 4T1 cells into the right mammary fat pad and were treated with Compound A (300 mg/kg po, bid), bintrafusp alfa (24.6 mg/kg iv, days 0, 3, 6), Compound A+bintrafusp alfa, when average tumor volume reached approximately 60 mm^3. Vehicle (po, bid) and isotype control antibody injections (20 mg/kg iv, days 0, 3, 6) were used as controls. (A) Average tumor volumes with SEM, and (B) individual tumor volumes are presented. Tumor volume data were analyzed using two-way ANOVA followed by Tukey's multiple comparison test.
(§1) To determine whether combined treatment with the dual A2A/A2B receptor inhibitor “Compound A” ((S)-7-Oxa-2-aza-spiro[4.5]decane-2-carboxylic acid [7-(3,6-dihydro-2H-pyran-4-yl)-4-methoxy-thiazolo[4,5-c]pyridin-2-yl]-amide) and bintrafusp alfa can inhibit tumor growth in either CD73^hi or CD73^low models, tumor growth was monitored in […] syngeneic tumor models. Animals were inoculated with either CD73^hi tumor cells (4T1, E0771, or EMT6) or with CD73^low MC38, H22 or MBT2 tumor cells. For all tumor models, animals were treated with either 1) vehicle and isotype, 2) Compound A and isotype, 3) vehicle and bintrafusp alfa, or 4) Compound A and bintrafusp alfa. […]

MC38 cells = experiment: CD73low MC38 syngeneic tumor model, tumor growth; format: in vivo, mice
Description: (§2) Female C57BL/6 mice were inoculated with 1×10^6 MC38 cells in the right lower flank and were treated with Compound A (300 mg/kg po, BID), bintrafusp alfa (24.6 mg/kg iv, days 0, 3, 6), Compound A+bintrafusp alfa, when average tumor volume reached approximately 70 mm^3. Vehicle (po, BID) and isotype control antibody injections (20 mg/kg iv, days 0, 3, 6) were used as controls. (A) Average tumor volumes with SEM, and (B) individual tumor volumes are presented. Tumor volume data were analyzed using two-way ANOVA followed by Tukey's multiple comparison test.
as §1

MBT2 cells = experiment: CD73low MBT2 syngeneic tumor model, tumor growth; format: in vivo; settings: MBT2, female C3H mice; Day 14; Compound A 300 mg/kg po BID; bintrafusp alfa 24.6 mg/kg iv days 0, 3, 6
Description: as §2, with “C3H” for “C57BL/6”, “MBT2” for “MC38”, “upper” for “lower”, “53” for “70”
as §1

ADORA2A (A2A) [1] = experiment: RNAseq gene expression in 4T1 tumors; format: in vivo, mice; settings: bintrafusp alfa 24.6 mg/kg iv, Day 6 post treatment, vs isotype
Description: (§3) FIG. 4: Bintrafusp alfa increases expression of A2B in CD73h adenosine-rich 4T1 tumor model, but not in CD73^low adenosine-low MC38 tumor model. For the 4T1 tumor model, female BALB/c mice were inoculated with 2×10^5 4T1 cells into the right mammary fat pad. For the MC38 tumor model, female C57BL/6 mice were inoculated subcutaneously in the right flank with MC38 cells (1×10^6). Animals in both studies were randomized into the groups and treatments started when the average tumor size reached approximately 100-150 mm^3. For both models, there were 15 mice in each group. The animals were treated with isotype control (20 mg/kg, iv) or bintrafusp alfa (24.6 mg/kg, iv) on days 0, 1, and 2. Tumors were harvested on Day 6 post treatment start, flash frozen, and used for RNASeq analysis. Gene expression levels of (A) NT5E, (B) ADORA2A (A2A), and (C) ADORA2B (A2B) are presented as mean±SEM. P-values were calculated using two-way ANOVA.
(§4) To determine whether bintrafusp alfa treatment modulates expression of A2A or A2B receptors or NT5E (gene encoding CD73), mice with established 4T1 and MC38 tumors were treated with 20 mg/kg isotype antibody or 24.6 mg/kg bintrafusp alfa.

ADORA2B (A2B) = experiment: RNAseq gene expression in 4T1 tumors; format: in vivo, mice; settings: CD73hi 4T1 tumors; bintrafusp alfa 24.6 mg/kg iv; Day 6 post treatment; vs isotype
Description: as §3, §4

NT5E (CD73) [2] = experiment: RNAseq gene expression in 4T1 tumors; format: in vivo, mice; settings: bintrafusp alfa 24.6 mg/kg iv, Day 6 post treatment, vs isotype
Description: as §3, §4

ADORA2A (A2A) [3] = experiment: RNAseq gene expression in MC38 tumors; format: in vivo, mice; settings: bintrafusp alfa 24.6 mg/kg iv, Day 6 post treatment, vs isotype
Description: as §3, §4

NT5E (CD73) [4] = experiment: RNAseq gene expression in MC38 tumors; format: in vivo, mice; settings: bintrafusp alfa 24.6 mg/kg iv, Day 6 post treatment, vs isotype
Description: as §3, §4

Compound	tumor growth inhibition, T/C (4T1 cells)	tumor growth inhibition (MC38 cells; MC38, Compound A 300 mg/kg po BID monotherapy)	tumor growth inhibition, T/C (MC38 cells; MC38, female C57BL/6 mice, Day 22 post treatment initiation, Compound A 300 mg/kg po BID, bintrafusp alfa 24.6 mg/kg iv days 0, 3, 6)	tumor growth inhibition, T/C (MBT2 cells)	expression of A2A (ADORA2A (A2A) [1])	expression of A2B (ADORA2B (A2B))	expression of NT5E (CD73) (NT5E (CD73) [2])	expression of A2A (ADORA2A (A2A) [3])	expression of NT5E (CD73) (NT5E (CD73) [4])
COc1ncc(C2=CCOCC2)c2sc(NC(=O)N3CC[C@@]4(CCCOC4)C3)nc12 [Compound A, (S)-7-Oxa-2-aza-spiro[4.5]decane-2-carboxylic acid [7-(3,6-dihydro-2H-pyran-4-yl)-4-methoxy-thiazolo[4,5-c]pyridin-2-yl]-amide]	68.5%	no tumor growth inhibition observed							
bintrafusp alfa: anti-PD-L1:TGFβRII fusion protein, CAS 1918149-01-5; human IgG1 antibody against PD-L1 fused to extracellular domain of human TGF-β receptor II	86.2%		42.1%	29.9%	no changes	increased	no changes	no changes	no changes
